Measured values as given in US20070160684A1, “Methods for increasing cancer cell chemosensitivity” (priority 2005, published 2007).

Legend:
[1] = tested on: Ku70-deficient MEF cells and their wild-type counterparts; assay: MTT cell viability assay; assay type: cell-based; details: increasing concentrations, 72 hours
Description: To confirm the involvement of DNA-PK in mediating HMGA2 chemosensitization to Dox-induced DNA damage, MTT assays were conducted as described above on Ku70-deficient (Ku70^−/^−) MEF cells and their wild-type counterparts and on DNA-PKcs-deficient MO59J cells and DNA-PKcs-proficient MO59K cells.

[2] = tested on: ATM Ser1981 phosphorylation; assay: Western analysis of ATM phosphorylation in pEBS7 and YZ5 cells; assay type: cell-based; details: 2 μM Dox
Description: ATM-deficient pEBS7 cells and ATM-proficient YZ5 cells were maintained in DMEM and 10% FBS with 100 μg/ml hygromycin at 37° C. with 5% CO2. pEBS7 and YZ5 are stable clones derived from ATM-deficient fibroblasts (AT22IJE-T) with empty vector and Flag-tagged wild-type ATM, respectively (Li 2000). Cells were treated with 2 μM Dox or vehicle only. At various time points after treatment, equal amounts of protein lysates were removed and subjected to Western analyses using monoclonal anti-phospho-ATM antibodies (Ser1981) (Upstate Cell Signaling, Waltham, Mass.).

[3] = tested on: pSer15-p53 and pThr68-Chk2; assay: Western analysis of p53 and Chk2 phosphorylation in parental and engineered HeLa cells; assay type: cell-based; details: Dox (2 μM), HeLa/HMGA2 and HeLa/HMGA2(2K/R) cells
Description: pSer15-p53 and pThr68-Chk2 profiles following exposure to Dox in parental and engineered HeLa cells were assessed. […] Intriguingly, there was a noticeable accumulation of pSer15-p53 at 6 hours post-treatment and attenuation of pThr68-Chk2 at 2 hours post-treatment in HeLa/HMGA2 cells, compared with Dox-treated HeLa and HeLa/HMGA2(2K/R) cells. Together with results set forth in Example 25, HMGA2 appears to disrupt DNA damage response by interfering with the activation of DNA-PKcs, ATM and Chk2.

[4] = tested on: PUMA and NOXA transcriptional activation; assay: Quantitative real-time RT-PCR of PUMA and NOXA; assay type: cell-based; details: 2 μM Dox
[5] = tested on: HMGA2/Ku70/Ku80 complex; assay: Co-immunoprecipitation after Dox treatment; assay type: cell-based
[6] = tested on: HS578T, HCC1419, and CHO cells; assay: MTT cell viability assay; details: Dox 0 to 2.5 μM
[7] = tested on: Pa-4 cells; details: 4 mM caffeine or 1 μM Dox
Description: Pa-4 and Pa-4/HMGA2 cells were seeded at 50-80% confluency in 35 mm dishes and serum starved overnight to synchronize cell cycle. […] Following treatment, cells were fixed in 70% ethanol overnight, stained with 20 μg/ml propidium iodide, and subjected to FACS analysis.
Apoptosis was quantified by assessing sub-G1 cell populations.

[8] = tested on: Pa-4 and Pa-4/HMGA2 cells; assay: MTT cell viability assay; assay type: cell-based; details: Dox 0-7 μM or irinotecan 0-50 μM
[9] = tested on: H2AX phosphorylation; assay: Western analysis of H2AX phosphorylation in HS578T and HCC1419 cells; assay type: cell-based; details: 2 μM Dox
Description: NU7026 (Calbiochem, San Diego, Calif.) was dissolved in DMSO at 5 mM and stored at −20° C. […] Cell lysates were removed and subjected to Western analyses using monoclonal anti-phospho-H2AX (Ser 139) antibodies. Control Western analyses were performed using monoclonal anti-actin antibodies.
Experiments were repeated using HS578T and HCC1419 cells treated with 2 μM rather than 1 μM Dox.

[10] = tested on: p53 Ser-15 and Chk2 Thr-68 phosphorylation; assay: Western analysis of p53 and Chk2 phosphorylation in MO59J and MO59K cells; assay type: cell-based
Description: To establish the role of DNA-PK in Dox-induced p53 and Chk2 phosphorylation, MO59J (DNA-PKcs-deficient) and MO59K (DNA-PKcs-proficient) cells were treated with Dox, and their p53 and Chk2 phosphorylation profiles were probed.

[11] = tested on: HepG2, Hep3B, and CL48 cells; assay: MTT cell viability assay; assay type: cell-based; details: increasing concentrations, 72 hours
Description: MTT assays were conducted as described above to assess the effect of HGMA2 expression on the sensitivity of HepG2, Hep3B, and CL48 cells to Dox or cisplatin. […] To exclude the possibility that HMGA2 increases chemosensitization in general, Taxol-induced cell growth inhibition was measured in HeLa and HeLa/HMGA2 cells. Taxol is a microtubule stabilizing agent (Slichenmyer 1991) commonly used as a chemotherapeutic agent for combating breast and ovarian cancers.

[12] = tested on: ATM phosphorylation; assay: Western analysis of ATM phosphorylation in HeLa and HeLa/HMGA2 cells; assay type: cell-based; details: Dox
Description: To ascertain whether HMGA2 effects Dox-induced ATM signaling activation, phosphorylation of ATM Ser1981 and H2AX Ser139 was assayed in the presence and absence of Dox (2 μM in ATM assays, 1 μM in H2AX assays). At various timepoints after Dox treatment, cell lysates were removed and subjected to Western analyses using monoclonal anti-phospho-ATM antibodies (Ser1981), polyclonal anti-ATM antibodies (Santa Cruz Biotechnology, Santa Cruz, Calif.), monoclonal anti-phospho-H2AX antibodies ([…]) (Upstate Cell Signaling), or anti-H2AX antibodies. Control Western analyses were performed using monoclonal anti-actin antibodies. […] HeLa and HeLa/HMGA2 cells
The effect of HMGA2 on ATM and H2AX phosphorylation in HeLa cells was measured using the protocol described above. […] As for H2AX, results were similar to those observed in Pa-4 cells.

[13] = tested on: Pa-4 cells; assay: FACS cell cycle analysis (G2/M, sub-G1); assay type: cell-based
Description: (§1) Pa-4 and Pa-4/HMGA2 cells were seeded at 50-80% confluency in 35 mm dishes and serum starved overnight to synchronize cell cycle. Synchronized cells were treated with 1 μM Dox or vehicle for 24 hours, then fixed in 70% ethanol overnight and stained with 20 μg/ml propidium iodide. The percentage of cells in G1 versus G2/M was then determined by FACS analysis at the Norris Cancer Center Flow Cytometry Core Facility using FACSCaliber (Becton Dickinson, Franklin Lakes, N.J.).
(§2) Apoptosis of Pa-4 and Pa-4/HMGA2 cells was quantified by assessing the sub-G, cell population, a hallmark of cell apoptosis. The percentage of […] Pa-4/HMGA2 cells was increased five-fold 24 hours after Dox treatment, versus an increase of only two-fold in Pa-4 cells (FIG. 3A, panel e).

[14] = tested on: Pa-4/HMGA2 cells; assay: FACS cell cycle analysis (G2/M, sub-G1); assay type: cell-based
Description: as §1, §2

[15] = 10 μM Dox for 30 minutes, HeLa/HMGA2 cells
[16] = 1 μM Dox for 24 hours, synchronized cells

For COc1cccc2c1C(=O)c1c(O)c3c(c(O)c1C2=O)C[C@@](O)(C(=O)CO)C[C@@H]3O[C@H]1C[C@H](N)[C@H](O)[C@H](C)O1 [Dox, doxorubicin], the “viability, Ku70-deficient versus wild type” value [1] was “marked decrease in viability”, the “ATM Ser1981 phosphorylation” value [2] was “detected between 0.5 and 2 hours after Dox treatment” and the “pSer15-p53 and pThr68-Chk2 signals” value [3] was “caused induction of pSer15-p53 and pThr68-Chk2 signals”. For the same molecule, the “transcriptional activation of PUMA and NOXA” value ([4]; CL48 and HepG2 cells) was “marked transcriptional activation of PUMA and NOXA at 8 hours after treatment”, the “transcriptional activation of PUMA and NOXA” value ([4]; Hep3B cells and HeLa cells) was “modest induction if any” and the “DNA-PKcs in the immunocomplexes of Ku80” value [5, 15] was “enriched the amount of DNA-PKcs detected in the immunocomplexes of Ku80”. For the same molecule, the “anti-Ku80-immunoprecipitated HMGA2” value [5, 15] was “decrease in anti-Ku80-immunoprecipitated HMGA2”, the “interaction of endogenous HMGA2 with Ku80/Ku70” value ([5]; Dox, Hs578T cells) was “this interaction was disrupted upon Dox-treatment” and the “sensitivity to growth inhibition, HS578T versus HCC1419 and CHO” value ([6]; 72 hours) was “HS578T cells were substantially more sensitive to Dox-mediated growth inhibition than the other two cell types”. The cell viability ([6]; 72 hours after treatment) was “decreased cell viability in a dose-dependent manner in all three cell types”, the “apoptosis (sub-G1 cell population), single agent” value [7] was “increase in apoptosis” and the “cell cycle distribution / cells in G2/M, single agent” value ([7]; 48 hours) was “greatly increased the number of cells in G2/M phase”. For the same molecule, the “difference in decrease of viability between Pa-4/HMGA2 and Pa-4 cells” value ([8]; 72 hours) was “much larger in Pa-4/HMGA2 cells than it was in Pa-4 cells”, the “cell viability / growth inhibition” value ([8]; 72 hours after treatment) was “decreased cell viability in a dose-dependent manner in both Pa-4 and Pa-4/HMGA2 cells” and the H2AX phosphorylation ([9]; HCC1419 cells) was “induced H2AX phosphorylation”. For the same molecule, the H2AX phosphorylation ([9]; HS578T cells) was “no increase in H2AX phosphorylation following Dox treatment”, the “p53 phosphorylation at Ser-15” value ([10]; Dox, MO59J and MO59K cells) was “robust p53 phosphorylation at Ser-15” and the “Chk2 phosphorylation at Thr-68” value ([10]; MO59J cells, 2 hours post-Dox treatment) was “barely detectable”. The “sensitivity, HepG2 and Hep3B versus CL48” value [11] was “greater sensitivity to both Dox and cisplatin than HMGA2-underexpressing CL48 cells”, the ATM phosphorylation ([12]; HeLa cells) was “rapid phosphorylation of ATM in HeLa cells” and the ATM phosphorylation ([12]; HeLa/HMGA2 cells) was “no ATM phosphorylation was observed”. For the same molecule, the “percentage of cells in G2/M phase” value [13, 16] was 50.9%, the “increase in apoptosis (sub-G1 cell population)” value ([13]; 24 hours after Dox treatment) was “two-fold” and the “percentage of cells in G2/M phase” value [14, 16] was 62.6%. The “increase in apoptosis (sub-G1 cell population)” value ([14]; 24 hours after Dox treatment) was “five-fold”.
